Values joined by “and” are separate entries in the source; they are usually repeats but may differ in a detail not shown here. Equal values may be shown once. Read-outs that look alike come from different tables or passages of the source.
How the values were obtained:
Details in all cases: COS-7 membranes
α1b-AR = target: T1, α1b-AR (Homo sapiens, UniProt P35368); experiment: α1-Adrenergic Receptor Binding Assay, 125I-HEAT radio-ligand binding, transfected COS-7 cell membranes, α1b subtype
T1 construct: expressed in transfected cells; host or cells: COS-7 cells (African Green monkey kidney), membranes
T1 sequence (P35368 1-520): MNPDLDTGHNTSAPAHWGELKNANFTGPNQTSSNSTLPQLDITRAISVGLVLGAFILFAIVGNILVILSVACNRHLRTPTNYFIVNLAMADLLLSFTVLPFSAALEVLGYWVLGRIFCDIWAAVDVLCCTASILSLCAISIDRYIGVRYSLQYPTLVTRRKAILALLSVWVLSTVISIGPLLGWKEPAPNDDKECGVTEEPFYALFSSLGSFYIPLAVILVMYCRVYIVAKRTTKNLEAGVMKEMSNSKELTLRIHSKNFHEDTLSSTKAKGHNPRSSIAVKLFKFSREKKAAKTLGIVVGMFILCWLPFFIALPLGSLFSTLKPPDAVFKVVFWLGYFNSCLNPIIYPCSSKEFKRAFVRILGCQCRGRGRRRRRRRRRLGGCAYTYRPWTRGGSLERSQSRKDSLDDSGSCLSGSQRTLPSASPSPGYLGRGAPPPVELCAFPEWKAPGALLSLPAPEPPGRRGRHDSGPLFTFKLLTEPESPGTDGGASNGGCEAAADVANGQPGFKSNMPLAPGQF
Method: (§1) Membranes were prepared from COS-7 cells (African Green monkey kidney SV40-transformed cells) that had been transfected with one of the three α1-AR subtypes by the following method: COS cells from ten 100 mm tissue culture plates were scraped into a 5 ml volume of TE (a mixture of 50 mM tris(hydroxymethyl)aminomethane hydrochloride (Tris-HCl) and 5 mM ethylenediaminetetraacetic acid (EDTA) at pH 7.4). The cell suspension was disrupted with a Brinkman Polytron (at a setting of 8) for 10 sec. The disrupted cells were centrifuged at 1000×g for 10 min at 4° C. Supernatants were centrifuged at 34,500×g for 20 min at 4° C. The membrane pellets were suspended in a 2 ml volume of TNE (a mixture of 50 mM Tris-HCl, 5 mM EDTA and 150 mM NaCl at pH7.4). An aliquot of the membrane suspension was stored at −70° C. until use. The protein concentration was determined using a BioRad “DC” protein assay kit following membrane solubilization with Triton X-100.
(§2) Triplicate determinations of radio-ligand binding in the presence of increasing concentrations of testing compound were made. The reagents were added to 96-well polypropylene plate wells. Each assay well contained 140 μL TNE, 25 μL 125′-2-(β-4-hydroxyphenyl)ethylaminomethyltetralone (^125I-HEAT) (specific activity 2200 Ci/mmol, Dupont-New England Nuclear, […] final), 10 μL testing compound dissolved in dimethyl sulfoxide (DMSO) ([…] to 10 μM in half-log increments, final), and 25 μL appropriate α1-AR membrane subtype suspension in TNE (0.5 ng/μL for the α1a and α1b subtypes and 13 ng/μL for the α1d subtype). The plate was incubated at rt for 1 hr. The contents of the wells were filtered through a glass filter (type C) (GF/C) membrane Unifilter plate (Packard Instruments) using the Packard Filtermate cell harvester. The filter plates were dried in a vacuum oven for 30 min at 40° C. 25 μL Microscint 20 liquid scintillation fluid (Packard Instuments) was added to each well. The radioactive content was analyzed in the TopCount microplate scintillation counter (Packard Instruments).
(§3) The Ki values (in nM) shown in Table 1 were determined using GraphPad Prism software.

α1d-AR = target: T2, α1d-AR (Homo sapiens, UniProt P25100); experiment: α1-Adrenergic Receptor Binding Assay, 125I-HEAT radio-ligand binding, transfected COS-7 cell membranes, α1d subtype
T2 construct: expressed in transfected cells; host or cells: COS-7 cells (African Green monkey kidney), membranes
T2 sequence (P25100 1-572): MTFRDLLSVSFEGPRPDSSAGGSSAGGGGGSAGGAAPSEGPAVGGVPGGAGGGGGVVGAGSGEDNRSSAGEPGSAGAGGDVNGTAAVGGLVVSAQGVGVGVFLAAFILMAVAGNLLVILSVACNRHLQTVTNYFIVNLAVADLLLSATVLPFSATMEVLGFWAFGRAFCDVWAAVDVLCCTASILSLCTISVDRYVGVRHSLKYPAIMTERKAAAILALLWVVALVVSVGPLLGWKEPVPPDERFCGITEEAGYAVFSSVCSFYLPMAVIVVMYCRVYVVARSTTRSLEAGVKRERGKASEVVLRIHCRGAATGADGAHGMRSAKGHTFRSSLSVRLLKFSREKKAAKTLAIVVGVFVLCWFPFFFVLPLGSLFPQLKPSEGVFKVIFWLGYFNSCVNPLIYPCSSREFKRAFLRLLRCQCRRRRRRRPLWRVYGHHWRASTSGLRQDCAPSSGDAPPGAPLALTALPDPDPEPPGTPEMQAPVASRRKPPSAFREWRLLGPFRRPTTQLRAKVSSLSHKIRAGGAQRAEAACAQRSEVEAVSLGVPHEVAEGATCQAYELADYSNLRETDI
Method: as §1, §2, §3

α1a-AR = target: T3, α1a-AR (Homo sapiens, UniProt P35348); experiment: α1-Adrenergic Receptor Binding Assay, 125I-HEAT radio-ligand binding, transfected COS-7 cell membranes, α1a subtype
T3 construct: expressed in transfected cells; host or cells: COS-7 cells (African Green monkey kidney), membranes
T3 sequence (P35348 1-466): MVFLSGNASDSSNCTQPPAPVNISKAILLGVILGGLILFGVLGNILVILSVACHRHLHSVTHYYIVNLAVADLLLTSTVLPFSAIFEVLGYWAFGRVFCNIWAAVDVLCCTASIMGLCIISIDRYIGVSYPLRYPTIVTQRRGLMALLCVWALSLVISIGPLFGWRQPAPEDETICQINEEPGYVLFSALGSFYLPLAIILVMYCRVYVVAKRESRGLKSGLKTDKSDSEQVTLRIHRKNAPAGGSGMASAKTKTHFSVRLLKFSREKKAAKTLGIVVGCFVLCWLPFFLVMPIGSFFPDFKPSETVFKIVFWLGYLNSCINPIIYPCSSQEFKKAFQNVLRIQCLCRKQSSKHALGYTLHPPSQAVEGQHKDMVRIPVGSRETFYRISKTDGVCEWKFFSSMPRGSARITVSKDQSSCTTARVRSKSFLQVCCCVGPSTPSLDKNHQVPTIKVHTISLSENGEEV
Method: as §1, §2, §3

[1] = average value, read-out: Alpha 1 Ki α1b (1) Average Value
[2] = individual values, read-out: Alpha 1 Ki α1b (2) Individual Values
[3] = average value, read-out: Alpha 1 Ki α1d (1) Average Value
[4] = individual values, read-out: Alpha 1 Ki α1d (2) Individual Values
[5] = average value, read-out: Alpha 1 Ki α1a (1) Average Value
[6] = individual values, read-out: Alpha 1 Ki α1a (2) Individual Values

CC(C)Oc1ccccc1N1CCN(CC2CC(CN3CCCCC3=O)=NO2)CC1 (stereo not shown) [Compound 1, 1-{5-[4-(2-isopropoxy-phenyl)-piperazin-1-ylmethyl]-4,5-dihydro-isoxazol-3-ylmethyl}-piperidin-2-one]
Ki (α1b-AR; [1]): 82 nM | Ki (α1b-AR; [2]): 82 nM | Ki (α1d-AR; [3]): 8.5 nM | Ki (α1d-AR; [4]): 8.5 nM | Ki (α1a-AR; [5]): 0.96 nM | Ki (α1a-AR; [6]): 0.96 nM

CC(C)Oc1ccccc1N1CCN(CC2CC(CN3CCc4ccccc43)=NO2)CC1 (stereo not shown) [Compound 4, 1-{5-[4-(2-isopropoxy-phenyl)-piperazin-1-ylmethyl]-4,5-dihydro-isoxazol-3-ylmethyl}-2,3-dihydro-1H-indole]
Ki (α1b-AR; [1]): 101 nM | Ki (α1b-AR; [2]): 101 nM | Ki (α1d-AR; [3]): 10 nM | Ki (α1d-AR; [4]): 10 nM | Ki (α1a-AR; [5]): 1.9 nM | Ki (α1a-AR; [6]): 1.9 nM

CC(C)Oc1ccccc1N1CCN(CC2CC(CN3CCCCC3)=NO2)CC1 (stereo not shown) [Compound 5, 1-(2-isopropoxy-phenyl)-4-(3-piperidin-1-ylmethyl-4,5-dihydro-isoxazol-5-ylmethyl)-piperazine]
Ki (α1b-AR; [1]): 5000 nM | Ki (α1b-AR; [2]): 5000 nM | Ki (α1d-AR; [3]): 178 nM | Ki (α1d-AR; [4]): 178 nM | Ki (α1a-AR; [5]): 10 nM | Ki (α1a-AR; [6]): 10 nM

CC(C)Oc1ccccc1N1CCN(CC2CC(CN3CCc4ccc(N)cc43)=NO2)CC1 (stereo not shown) [Compound 6, 1-{5-[4-(2-isopropoxy-phenyl)-piperazin-1-ylmethyl]-4,5-dihydro-isoxazol-3-ylmethyl}-2,3-dihydro-1H-indol-6-ylamine]
Ki (α1b-AR; [1]): 410 nM | Ki (α1b-AR; [2]): 410 nM | Ki (α1d-AR; [3]): 46 nM | Ki (α1d-AR; [4]): 46 nM | Ki (α1a-AR; [5]): 4.3 nM | Ki (α1a-AR; [6]): 4.3 nM

CC(C)Oc1ccccc1N1CCN(CC2CC(CN3CCc4ccc(NCc5c(F)cccc5F)cc43)=NO2)CC1 (stereo not shown) [Compound 7, (2,6-difluoro-benzyl)-(1-{5-[4-(2-isopropoxy-phenyl)-piperazin-1-ylmethyl]-4,5-dihydro-isoxazol-3-ylmethyl}-2,3-dihydro-1H-indol-6-yl)-amine]
Ki (α1b-AR; [1]): 172 nM | Ki (α1b-AR; [2]): 172 nM | Ki (α1d-AR; [3]): 9.4 nM | Ki (α1d-AR; [4]): 9.4 nM | Ki (α1a-AR; [5]): 6.4 nM | Ki (α1a-AR; [6]): 6.4 nM

CC(C)Oc1ccccc1N1CCN(CC2CC(CN3CCc4ccc(NCc5ccccc5F)cc43)=NO2)CC1 (stereo not shown) [Compound 8, (2-fluoro-benzyl)-(1-{5-[4-(2-isopropoxy-phenyl)-piperazin-1-ylmethyl]-4,5-dihydro-isoxazol-3-ylmethyl}-2,3-dihydro-1H-indol-6-yl)-amine]
Ki (α1b-AR; [1]): 304 nM | Ki (α1b-AR; [2]): 304 nM | Ki (α1d-AR; [3]): 35 nM | Ki (α1d-AR; [4]): 35 nM | Ki (α1a-AR; [5]): 6.9 nM | Ki (α1a-AR; [6]): 6.9 nM

COc1cccc(CNc2ccc3c(c2)N(CC2=NOC(CN4CCN(c5ccccc5OC(C)C)CC4)C2)CC3)c1 (stereo not shown) [Compound 9, (1-{5-[4-(2-isopropoxy-phenyl)-piperazin-1-ylmethyl]-4,5-dihydro-isoxazol-3-ylmethyl}-2,3-dihydro-1H-indol-6-yl)-(3-methoxy-benzyl)-amine]
Ki (α1b-AR; [1]): 195 nM | Ki (α1b-AR; [2]): 195 nM | Ki (α1d-AR; [3]): 22 nM | Ki (α1d-AR; [4]): 22 nM | Ki (α1a-AR; [5]): 34 nM | Ki (α1a-AR; [6]): 34 nM

CC(C)Oc1ccccc1N1CCN(CC2CC(C(=O)N3CCc4ccccc43)=NO2)CC1 (stereo not shown) [Compound 10, (2,3-dihydro-indol-1-yl)-{5-[4-(2-isopropoxy-phenyl)-piperazin-1-ylmethyl]-4,5-dihydro-isoxazol-3-yl}-methanone]
Ki (α1b-AR; [1]): 107 nM | Ki (α1b-AR; [2]): 90 nM and 145 nM and 92 nM and 87.6 nM and 121 nM | Ki (α1d-AR; [3]): 1.3 nM | Ki (α1a-AR; [5]): 2.12 nM | Ki (α1a-AR; [6]): 1.4 nM and 3.4 nM and 3.1 nM and 1.9 nM and 0.8 nM

CC(C)Oc1ccccc1N1CCN(CC2CC(C(=O)N3CCc4ccc([N+](=O)[O-])cc43)=NO2)CC1 (stereo not shown) [Compound 11, {5-[4-(2-isopropoxy-phenyl)-piperazin-1-ylmethyl]-4,5-dihydro-isoxazol-3-yl}-(6-nitro-2,3-dihydro-indol-1-yl)-methanone]
Ki (α1b-AR; [1]): 145 nM | Ki (α1b-AR; [2]): 153 nM and 136 nM | Ki (α1d-AR; [3]): 1.82 nM | Ki (α1d-AR; [4]): 3.1 nM and 0.55 nM | Ki (α1a-AR; [5]): 1.42 nM | Ki (α1a-AR; [6]): 2.2 nM and 0.63 nM

CC(C)Oc1ccccc1N1CCN(CC2CC(C(=O)N3CCCCC3)=NO2)CC1 (stereo not shown) [Compound 12, {5-[4-(2-isopropoxy-phenyl)-piperazin-1-ylmethyl]-4,5-dihydro-isoxazol-3-yl}-piperidin-1-yl-methanone]
Ki (α1b-AR; [1]): 249 nM | Ki (α1b-AR; [2]): 334 nM and 174 nM and 239 nM | Ki (α1d-AR; [3]): 17.8 nM | Ki (α1d-AR; [4]): 29 nM and 18 nM and 6.26 nM | Ki (α1a-AR; [5]): 1.81 nM | Ki (α1a-AR; [6]): 1.02 nM and 1.7 nM and 2.7 nM

CC(C)Oc1ccccc1N1CCN(CC2CC(C(=O)N3CCc4cc(Br)ccc43)=NO2)CC1 (stereo not shown) [Compound 13, (5-bromo-2,3-dihydro-indol-1-yl)-{5-[4-(2-isopropoxy-phenyl)-piperazin-1-ylmethyl]-4,5-dihydro-isoxazol-3-yl}-methanone]
Ki (α1b-AR; [1]): 191 nM | Ki (α1b-AR; [2]): 402 nM and 147 nM and 134 nM and 82.8 nM | Ki (α1d-AR; [3]): 6.08 nM | Ki (α1a-AR; [5]): 2.48 nM | Ki (α1a-AR; [6]): 1.31 nM and 2.4 nM and 3.7 nM and 2.5 nM

CC(C)Oc1ccccc1N1CCN(CC2CC(C(=O)N3CCc4ccc(N)cc43)=NO2)CC1 (stereo not shown) [Compound 14, (6-amino-2,3-dihydro-indol-1-yl)-{5-[4-(2-isopropoxy-phenyl)-piperazin-1-ylmethyl]-4,5-dihydro-isoxazol-3-yl}-methanone]
Ki (α1b-AR; [1]): 141 nM | Ki (α1b-AR; [2]): 141 nM | Ki (α1d-AR; [3]): 2.8 nM | Ki (α1d-AR; [4]): 2.8 nM | Ki (α1a-AR; [5]): 2 nM | Ki (α1a-AR; [6]): 2 nM

CC(C)Oc1ccccc1N1CCN(CC2CC(C(=O)N3CCc4ccc(NCc5ccccc5F)cc43)=NO2)CC1 (stereo not shown) [Compound 15, [6-(2-fluoro-benzylamino)-2,3-dihydro-indol-1-yl]-{5-[4-(2-isopropoxy-phenyl)-piperazin-1-ylmethyl]-4,5-dihydro-isoxazol-3-yl}-methanone]
Ki (α1b-AR; [1]): 128 nM | Ki (α1b-AR; [2]): 128 nM | Ki (α1d-AR; [3]): 11.6 nM | Ki (α1d-AR; [4]): 11.6 nM | Ki (α1a-AR; [5]): 9.6 nM | Ki (α1a-AR; [6]): 9.6 nM

Source: US20080221116A1, “ISOXAZOLINE ALPHA 1a/1d ADRENORECEPTOR ANTAGONISTS” (priority 2006, published 2008)
